Assay results as given in patent US7429482B2, “Screening tools for discovery of novel anabolic agents” (United States of America as represented by the Department …, priority 2005, dated 2008).

What was measured:
[1] = test system: starved, cultured muscle cells; experiment: Muscle breakdown in starved, cultured muscle cells; format: cell-based
[2] = Acute denervation (0-14 days): muscle weights; format: in vivo; settings: rat
Procedure: (§1) Male Wistar rats weighing 250 gm (Taconic Farms, Germantown, N.Y.) were provided food and water ad libitum and were housed in a temperature and humidity controlled environment providing a 12:12 hour day-night cycle. For surgical procedures, animals were anesthetized with ketamine/xylazine. The left sciatic nerve was exposed by blunt dissection, and a 1 to 2 mm piece of this nerve was excised just below the level of the femoral head. A sham surgery was performed on the right hind limb in which the sciatic nerve was exposed but was not transected. Model 2002 Alzet pumps were implanted subcutaneously on the back. […] A pellet containing 15 mg of testosterone (Innovative Research of America, Sarasota, Fla.) administered as a continuous infusion (5 mg/wk), or a pellet containing placebo, was inserted into a subcutaneous pouch. […] Because testosterone is known to have anabolic actions (Ferrando et al., Am J Physiol Endocrinol Metab 282: E601-E607, 2002; Mauras et al., J Clin Endocrinol Metab 83: 1886-1892, 1998; Urban et al., Am J Physiol 269: E820-E826, 1995), reductions in levels of this hormone could affect muscle mass and confound interpretation of the results. Animals were euthanized 14 days later by inhalation of carbon dioxide. Following removal of blood from the left ventricle for determination of serum testosterone concentration by radioimmunoassay (MP Biomedicals, Costa Mesa, Calif.), soleus, extensor digitorum longus (EDL), gastrocnemius and plantaris muscles were excised and weighed, then were flash frozen on dry ice and stored at −80° C.

[3] = test system: myogenin; experiment: Acute denervation: myogenin mRNA in EDL and soleus (qPCR); format: in vivo, rat
Procedure: as §1
Total RNA was extracted from skeletal muscle (20 mg) by homogenization in guanidine thiocyanate using a Polytron followed by extraction using phenol-chloroform (Chomczynski and Sacchi, Anal Biochem 162: 156-159, 1987). Total RNA was further enriched using RNAeasy minicolumns (Qiagen, Valencia, Calif.) and treated with RNAse-free DNAse (Qiagen). Total RNA was then eluted and quantified by absorbance at 260 nm. One μg of total RNA was used to prepare a cDNA library by reverse transcription (iScirpt, Biorad, Hercules, Calif.). Libraries were diluted 1:25 with water prior to real time PCR. Real time PCR was conducted using an ABI 7500 real time PCR thermal cycler, ABI 2×PCR reagent, and ABI Taqman real time PCR probes for genes of interest. Levels of gene expression in the denervated muscle were expressed as fold induction relative to muscle from the sham-denervated leg of animals administered vehicle. […] Fold-induction was determined using the 2^−ΔΔCt method, using expression of 18S RNA as the normalization control. Primers and probes used for 18S RNA, MuRF1 and myostatin were obtained through the assays by Design service of Applied Biosystems and had the sequences are shown in Table 2; probes were 5′ labeled with FAM and 3′ modified with a non-fluorescent quencher. All other primer-probe combinations used were those contained in ABI Assay on Demand kits.

[4] = test system: myostatin; experiment: Chronic denervation: myostatin mRNA in gastrocnemius (qPCR); format: in vivo, rat
Procedure: (§2) Male Wistar rats weighing 200-250 gm (Taconic Farms, Germantown, N.Y.) were provided food and water ad libitum and were housed in a temperature and humidity controlled environment providing a 12:12 hour day-night cycle. For surgical procedures, animals were anesthetized with ketamine/xylazine. The left sciatic nerve was exposed by blunt dissection, and a 1 to 2 mm piece of this nerve was excised just below the level of the femoral head. A sham surgery was performed on the right hind limb in which the sciatic nerve was exposed but was not transected. Twenty eight days later, animals were anesthetized, and Alzet pumps were implanted subcutaneously on the back. […] Testosterone levels after replacement were approximately 15 nM, a high-normal range for rats of this age. […]
(§3) Total RNA was extracted from skeletal muscle (20 mg) by homogenization in guanidine thiocyanate using a Polytron followed by extraction of total RNA with phenol-chloroform as described by (Chomczynski and Sacchi, Anal Biochem 162: 156-159, 1987). […] Total RNA was eluted and quantified by absorbance at 260 nm. […] Levels of gene expression in the denervated muscle were expressed as fold induction relative to muscle from the sham-denervated leg of animals administered vehicle. […] Fold-induction was determined using the 2^−ΔΔCt method, using expression of 18S RNA as the normalization control. […]

[5] = test system: junB; experiment: Chronic denervation: junB mRNA in gastrocnemius (qPCR); format: in vivo, rat
Procedure: as §2, §3

[6] = test system: GADD45; experiment: Acute denervation: GADD45 mRNA in EDL and soleus (qPCR); format: in vivo, rat; settings: significant
Procedure: as §2, with “250” for “200-250”, “Model 2002” for “Twenty eight days later, animals were anesthetized, and”, “A pellet containing” for “Testosterone levels after replacement were approximately”, “mg of testosterone (Innovative Research of America, Sarasota, Fla.) administered as” for “nM,”, “continuous infusion (5 mg/wk), or a pellet containing placebo, was inserted into a subcutaneous pouch.” for “high-normal range for rats of this age.”
(§4) Total RNA was extracted from skeletal muscle (20 mg) by homogenization in guanidine thiocyanate using a Polytron followed by extraction using phenol-chloroform (Chomczynski and Sacchi, Anal Biochem 162: 156-159, 1987). […] Total RNA was then eluted and quantified by absorbance at 260 nm. […] Levels of gene expression in the denervated muscle were expressed as fold induction relative to muscle from the sham-denervated leg of animals administered vehicle. […] Fold-induction was determined using the 2^−ΔΔCt method, using expression of 18S RNA as the normalization control. […]

[7] = test system: IGF-1; experiment: Chronic denervation: IGF-1 mRNA in gastrocnemius (qPCR); format: in vivo, rat
Procedure: as §2, §3

[8] = test system: IGFBP-2; experiment: Chronic denervation: IGFBP-2 mRNA in gastrocnemius (qPCR); format: in vivo, rat
Procedure: as §2, §3

[9] = test system: IGFBP-3; experiment: Chronic denervation: IGFBP-3 mRNA in gastrocnemius (qPCR); format: in vivo, rat
Procedure: as §2, §3

[10] = test system: junB; experiment: Acute denervation: junB mRNA in EDL and soleus (qPCR); format: in vivo, rat
[11] = test system: MAFbx; experiment: Acute denervation: MAFbx mRNA in EDL and soleus (qPCR); format: in vivo, rat; settings: nandrolone 1.5 mg/kg/wk 14 days
Procedure: as §1, with “Following removal of blood from the left ventricle for determination of serum testosterone concentration by radioimmunoassay (MP Biomedicals, Costa Mesa, Calif.), soleus, extensor digitorum longus (EDL), gastrocnemius and plantaris muscles were excised and weighed, then were flash frozen on dry ice and stored at −80° C.” left out
as §4

C[C@]12CC[C@H]3[C@@H](CCC4=CC(=O)CC[C@@]43C)[C@@H]1CC[C@@H]2O [testosterone]
muscle breakdown [1]: reduced

C[C@]12CC[C@H]3[C@@H](CCC4=CC(=O)CC[C@@H]43)[C@@H]1CC[C@@H]2O [nandrolone]
weights of muscles from sham-transected limbs ([2]; nandrolone 1.5 mg/kg/wk 14 days + testosterone replacement, not statistically significant): tended to be increased
weights of muscles from the denervated limb versus vehicle ([2]; nandrolone 1.5 mg/kg/wk, 14 days after sciatic transection): not significantly different
effect on atrophy ([2]; nandrolone 7.5 or 37.5 mg/kg/week, same protocol): No effect
myogenin expression ([3]; denervated EDL, not significant): tended to reduce
myogenin expression as % of that in denervated muscle from placebo animals ([3]; denervated soleus): 70%
reduction of myogenin expression ([3]; sham-denervated EDL, not significant): 50%
reduction of myogenin expression ([3]; sham-denervated EDL, trend, not significant): 27%
reduction of myogenin expression ([3]; sham-denervated soleus, did not reach significance): 50%
reduction of myogenin expression ([3]; sham-denervated soleus, trend, not significant): 48%
myostatin expression ([4]; denervated muscle, 7 and 28 days administration): modest, though significant reduction
myostatin expression ([4]; sham-denervated muscle, not significant): tended to be decreased
junB expression ([5]; denervated muscle, 3 to 28 days after starting infusion): tended to reduce
junB expression ([5]; sham-denervated muscle): no effect
reduction in GADD45 expression ([6]; denervated EDL): 21%
decrease in GADD45 expression ([6]; denervated soleus): 40%
IGF-1 expression ([7]; denervated muscle): did not alter
IGF-1 expression ([7]; sham-denervated muscle): did not alter
IGFBP-2 expression ([8]; denervated muscle, any time tested): did not significantly alter
IGFBP-2 expression ([8]; sham-denervated muscle): did not appreciably alter
IGF-BP-3 expression ([9]; denervated muscle, 56-days): significantly reduced
IGFBP-3 expression ([9]; sham-denervated muscle): did not appreciably alter
junB expression ([10]; denervated EDL): significantly reduced
junB expression ([10]; denervated soleus): tended to reduce
increase in junB expression ([10]; soleus and EDL from sham-denervated limbs, tendency): approximately 2 fold
MAFbx expression ([11]; denervated EDL): reductions were not statistically significant
MAFbx expression ([11]; denervated soleus): significantly reduced
MAFbx expression ([11]; sham-denervated EDL or soleus): did not significantly alter
